Measured values as given in patent US20240174659A1, “COMPOUNDS AND METHODS FOR YAP/TEAD MODULATION AND INDICATIONS THEREFOR” (Opna Bio SA, priority 2021, published 2024).
Counter-ions that a name gives are not always drawn.

Tested on: TEAD-dependent transcription
Assay: Inhibitor activity against TEAD-dependent transcription in a cell-based reporter assay (MSTO-211H+12XGTIIC luciferase)
Conditions: Homo sapiens; MSTO-211H+12XGTIIC cells, 24 hours incubation, luciferase luminescence normalized to cell viability fluorescence, geometric mean; read-out: MSTO-211H GMean IC50 (uM) Cell Assay Reporter Cell Variant: TEAD
Text: Determine Inhibitor Activity Against TEAD-Dependent Transcription in a Cell-Based Reporter Assay
The human mesothelioma cell line MSTO-211H was stably transfected with a pGL4.21 plasmid containing a synthetic promoter with 12 copies of the GTIIC TEAD response element that drives the expression of a luciferase reporter gene^1 using Lipofectamine transfection reagent (Thermo Fisher). Transfected cells were selected using puromycin and single cell clones expressing this construct (referred to as MSTO-211H+12XGTIIC) were generated by limiting dilution. MSTO-211H cells was characterized by genetic alterations in key components of the Hippo pathway^2, resulting in up-regulation of YAP/TEAD-mediated transcription. […] To evaluate TEAD inhibitors, the MSTO-211H+12XGTIIC cell line was seeded in a 96-well plate in 50 μL of culture media at 1×10^4 cells per well and incubated at 37° C. overnight. Serial dilutions of compounds (in total volume of 50 μL of culture media) were added to the cells and incubated at 37° C. for 24 hours. Each plate included cells treated with DMSO as high controls and cells treated with 20 μM of the reference compound K-975 (a known TEAD inhibitor)^3 as low controls. Cell viability was assayed by the addition of 25 μL of CellTiter-Fluor reagent (Promega) followed by a 30-minute incubation at 37° C. and quantification of the fluorescence signal (Ex400/Em505). Subsequently, luciferase expression was assayed by the addition of 25 μL of ONE-Glo reagent (Promega) followed by a 10-minute incubation at room temperature and quantification of the luminescence signal. The luminescence signal was normalized to the fluorescence signal to correct for any loss in cell viability over the 24-hour compound incubation period. The percentage of inhibition of normalized luminescence signal, indicative of compound-mediated inhibition of TEAD-dependent transcription, at individual compound concentrations relative to high and low controls was calculated. The data were analyzed by using nonlinear regression to generate IC50 values for individual compounds.

Compound | IC50 [µM]
C=CC(=O)N1CCc2cc(C)c(Oc3cccc(F)c3)cc2C1 [P-0042, 1-(7-(3-fluorophenoxy)-6-methyl-3,4-dihydroisoquinolin-2(1H)-yl)prop-2-en-1-one] | 0.001 to 0.5
C=CC(=O)N1CCc2cc(C)c(Oc3ccc(F)cc3)cc2C1 [P-0043, 1-(7-(4-fluorophenoxy)-6-methyl-3,4-dihydroisoquinolin-2(1H)-yl)prop-2-en-1-one] | 0.001 to 0.5
C=CC(=O)N1CCc2ccc(Oc3ccc(F)c(C(F)(F)F)c3)cc2C1 [P-0044, 1-(7-(4-fluoro-3-(trifluoromethyl)phenoxy)-3,4-dihydroisoquinolin-2(1H)-yl)prop-2-en-1-one] | 0.001 to 0.5
C=CC(=O)N1CCc2ccc(Oc3ccc(C(F)(F)F)c(F)c3)cc2C1 [P-0045, 1-(7-(3-fluoro-4-(trifluoromethyl)phenoxy)-3,4-dihydroisoquinolin-2(1H)-yl)prop-2-en-1-one] | 0.001 to 0.5
C=CC(=O)N1CCc2ccc(Oc3cccc(C4CC4)c3)cc2C1 [P-0046, 1-(7-(3-cyclopropylphenoxy)-3,4-dihydroisoquinolin-2(1H)-yl)prop-2-en-1-one] | 0.001 to 0.5
C=CC(=O)N1CCc2ccc(Oc3ccc(C4CC4)cc3)cc2C1 [P-0047, 1-(7-(4-cyclopropylphenoxy)-3,4-dihydroisoquinolin-2(1H)-yl)prop-2-en-1-one] | 0.001 to 0.5
C=CC(=O)N1CCc2ccc(Oc3ccc(F)c(C4CC4)c3)cc2C1 [P-0048, 1-(7-(3-cyclopropyl-4-fluorophenoxy)-3,4-dihydroisoquinolin-2(1H)-yl)prop-2-en-1-one] | 0.001 to 0.5
[2H]C([2H])=C([2H])C(=O)N1CCc2ccc(Oc3ccc(C(F)(F)F)c(F)c3)cc2C1 [P-0049, 1-(7-(3-fluoro-4-(trifluoromethyl)phenoxy)-3,4-dihydroisoquinolin-2(1H)-yl)prop-2-en-1-one-2,3,3-d3] | 0.001 to 0.5
C=CC(=O)N1CCc2ccc(Oc3ccc(C4CC4)c(F)c3)cc2C1 [P-0050, 1-(7-(4-cyclopropyl-3-fluorophenoxy)-3,4-dihydroisoquinolin-2(1H)-yl)prop-2-en-1-one] | 0.001 to 0.5
C=C(F)C(=O)N1CCc2ccc(Oc3ccc(C(F)(F)F)nc3)cc2C1 [P-0051, 2-fluoro-1-(7-((6-(trifluoromethyl)pyridin-3-yl)oxy)-3,4-dihydroisoquinolin-2(1H)-yl)prop-2-en-1-one] | 0.001 to 0.5
C=CC(=O)N1CCc2ccc(Oc3ccc(OC(F)(F)F)cc3)cc2C1 [P-0052, 1-(7-(4-(trifluoromethoxy)phenoxy)-3,4-dihydroisoquinolin-2(1H)-yl)prop-2-en-1-one] | > 20
C=CC(=O)N1CCc2ccc(Oc3ccc(C(F)(F)F)cn3)cc2C1 [P-0053, 1-(7-((5-(trifluoromethyl)pyridin-2-yl)oxy)-3,4-dihydroisoquinolin-2(1H)-yl)prop-2-en-1-one formate] | 0.001 to 0.5
C=CC(=O)N1CCc2ccc(NC34CCC(CC3)CC4)cc2C1 [P-0054, 1-(7-(bicyclo[2.2.2]octan-1-ylamino)-3,4-dihydroisoquinolin-2(1H)-yl)prop-2-en-1-one formate] | 0.001 to 0.5
C=CC(=O)N1CCc2ccc(NC3CC4(CCC4)C3)cc2C1 [P-0055, 1-(7-(spiro[3.3]heptan-2-ylamino)-3,4-dihydroisoquinolin-2(1H)-yl)prop-2-en-1-one formate] | 0.001 to 0.5
C=CC(=O)N1CCc2ccc(N[C@H]3CC[C@H](C(F)(F)F)CC3)cc2C1 [P-0056, 1-(7-(((1r,4r)-4-(trifluoromethyl)cyclohexyl)amino)-3,4-dihydroisoquinolin-2(1H)-yl)prop-2-en-1-one] | 0.001 to 0.5
C=CC(=O)N1CCc2ccc(Oc3cc(F)cc(F)c3)cc2C1 [P-0057, 1-(7-(3,5-difluorophenoxy)-3,4-dihydroisoquinolin-2(1H)-yl)prop-2-en-1-one] | 0.001 to 0.5
C=CC(=O)N1CCc2ccc(Oc3cc(F)ccc3F)cc2C1 [P-0058, 1-(7-(2,5-difluorophenoxy)-3,4-dihydroisoquinolin-2(1H)-yl)prop-2-en-1-one] | 0.001 to 0.5
C=CC(=O)N1CCc2ccc(Oc3ccccn3)cc2C1 [P-0059, 1-(7-(pyridin-2-yloxy)-3,4-dihydroisoquinolin-2(1H)-yl)prop-2-en-1-one] | > 20
C=CC(=O)N1CCc2ccc(Oc3ccnc(C(F)(F)F)c3)cc2C1 [P-0060, 1-(7-((2-(trifluoromethyl)pyridin-4-yl)oxy)-3,4-dihydroisoquinolin-2(1H)-yl)prop-2-en-1-one] | 0.001 to 0.5

Compound | IC50 [µM]
C=CC(=O)N1CCc2ccc(OC3CCCCC3)cc2C1 [P-0061, 1-(7-(cyclohexyloxy)-3,4-dihydroisoquinolin-2(1H)-yl)prop-2-en-1-one] | 0.001 to 0.5
C=CC(=O)N1CCc2ccc(OC3CCC(F)(F)CC3)cc2C1 [P-0062, 1-(7-((4,4-difluorocyclohexyl)oxy)-3,4-dihydroisoquinolin-2(1H)-yl)prop-2-en-1-one] | 0.001 to 0.5
C=CC(=O)N1CCc2ccc(Oc3ccccc3F)cc2C1 [P-0063, 1-(7-(2-fluorophenoxy)-3,4-dihydroisoquinolin-2(1H)-yl)prop-2-en-1-one] | 0.001 to 0.5
C=CC(=O)N1CCc2ccc(OC3CCC4(CCCC4)CC3)cc2C1 [P-0064, 1-(7-(spiro[4.5]decan-8-yloxy)-3,4-dihydroisoquinolin-2(1H)-yl)prop-2-en-1-one] | 0.5 to 20
C=CC(=O)N1CCc2ccc(N[C@H]3CC[C@@H](C(F)(F)F)CC3)cc2C1 [P-0065, 1-(7-(((1s,4s)-4-(trifluoromethyl)cyclohexyl)ami-no)-3,4-dihydroisoquinolin-2(1H)-yl)prop-2-en-1-one formate] | 0.001 to 0.5
C=CC(=O)N1CCc2ccc(NC3CCCC3)cc2C1 [P-0066, 1-(7-(cyclopentylamino)-3,4-dihydroisoquinolin-2(1H)-yl)prop-2-en-1-one] | 0.001 to 0.5
C=CC(=O)N1CCc2ccc(Cc3ccc(F)c(C(F)(F)F)c3)cc2C1 [P-0067, 1-(7-(4-fluoro-3-(trifluoromethyl)benzyl)-3,4-dihydroisoquinolin-2(1H)-yl)prop-2-en-1-one] | 0.001 to 0.5
C=CC(=O)N1CCc2ccc(Cc3ccc(C(F)(F)F)c(F)c3)cc2C1 [P-0068, 1-(7-(3-fluoro-4-(trifluoromethyl)benzyl)-3,4-dihydroisoquinolin-2(1H)-yl)prop-2-en-1-one] | 0.001 to 0.5
C=CC(=O)N1CCc2ccc(Oc3cccc(C(F)(F)F)n3)cc2C1 [P-0069, 1-(7-((6-(trifluoromethyl)pyridin-2-yl)oxy)-3,4-dihydroisoquinolin-2(1H)-yl)prop-2-en-1-one] | 0.5 to 20
C=CC(=O)N1CCc2ccc(OC3CCCCCC3)cc2C1 [P-0070, 1-(7-(cycloheptyloxy)-3,4-dihydroisoquinolin-2(1H)-yl)prop-2-en-1-one] | 0.001 to 0.5
C=CC(=O)N1CCc2ccc(OC3CCC(C(F)(F)F)CC3)cc2C1 (centres unmarked) [P-0071, 1-(7-((4-(trifluoromethyl)cyclohexyl)oxy)-3,4-dihydroisoquinolin-2(1H)-yl)prop-2-en-1-one] | 0.001 to 0.5
C=CC(=O)N1CCc2ccc(Cc3ccc(C(F)(F)F)cc3)cc2C1 [P-0072, 1-(7-(4-(trifluoromethyl)benzyl)-3,4-dihydroisoquinolin-2(1H)-yl)prop-2-en-1-one] | 0.001 to 0.5
C=CC(=O)N1CCc2ccc(Oc3ccc(Cl)c(F)c3)cc2C1 [P-0073, 1-(7-(4-chloro-3-fluorophenoxy)-3,4-dihydroisoquinolin-2(1H)-yl)prop-2-en-1-one] | 0.001 to 0.5
C=CC(=O)N1CCc2ccc(OC3CC4(CCC4)C3)cc2C1 [P-0074, 1-(7-(spiro[3.3]heptan-2-yloxy)-3,4-dihydroisoquinolin-2(1H)-yl)prop-2-en-1-one] | 0.001 to 0.5
C=CC(=O)N1CCc2ccc(O[C@H]3C[C@@H]4[C@H](C3)C4(F)F)cc2C1 [P-0075, 1-(7-(((1R,3r,5S)-6,6-difluorobicyclo[3.1.0]hexan-3-yl)oxy)-3,4-dihydroisoquinolin-2(1H)-yl)prop-2-en-1-one] | 0.001 to 0.5
C=CC(=O)N1CCc2ccc(OC3CC4CCC3C4)cc2C1 (centres unmarked) [P-0076, 1-(7-(bicyclo[2.2.1]heptan-2-yloxy)-3,4-dihydroisoquinolin-2(1H)-yl)prop-2-en-1-one] | 0.001 to 0.5
C=CC(=O)N1CCc2ccc(OC3CCC4(CC3)CC4)cc2C1 [P-0077, 1-(7-(spiro[2.5]octan-6-yloxy)-3,4-dihydroisoquinolin-2(1H)-yl)prop-2-en-1-one] | 0.001 to 0.5
C=CC(=O)N1CCc2ccc(OCc3ccc(C(F)(F)F)cc3)cc2C1 [P-0078, 1-(7-((4-(trifluoromethyl)benzyl)oxy)-3,4-dihydroisoquinolin-2(1H)-yl)prop-2-en-1-one] | 0.5 to 20
C=CC(=O)N1CCc2ccc(OCc3ccc(C(F)(F)F)nc3)cc2C1 [P-0079, 1-(7-((6-(trifluoromethyl)pyridin-3-yl)methoxy)-3,4-dihydroisoquinolin-2(1H)-yl)prop-2-en-1-one] | > 20
